These results are taken from patent US9271971B2, “Pyrido[3,4-B]indoles and methods of use” (Medivation Technologies, Inc., priority 2009, dated 2016).

For test [1], the target named is T1, human recombinant serotonin (5-Hydroxytryptamine) 5-HT2A receptor (Homo sapiens, UniProt P28223).
T1 construct: expressed in transfected cells; host or cells: Chinese hamster ovary (CHO-K1) cells
Kind of test: Serotonin 5-HT2A radioligand binding assay. Conditions: [3H]Ketanserin specific binding; for inhibition at 1 µM: read-out: Percent Inhibition of ligand binding, Serotonin (1 μM ligand concentration) 5-HT2A. The procedure:
To evaluate in radioligand binding assays the activity of compounds of the invention, human recombinant serotonin (5-Hydroxytryptamine) 5-HT2A receptor expressed in Chinese hamster ovary (CHO-K1) cells [Bonhaus, D. W. et al., Br. J. Pharmacol. (1995), 115:622; Saucier, C. et al., J. Neurochem. (1997), 68:1998] in a 50 mM Tris-HCl buffer, pH 7.4, was used. Compounds of the invention were incubated with 0.5 nM [^3H]Ketanserin for 60 min. at 25° C. Non-specific binding was estimated in the presence of 1 μM Mianserin. Receptor proteins were filtered and washed, the filters were then counted to determine [^3H]Ketanserin specifically bound. Compounds were screened at 1 μM or lower, using 1% DMSO as vehicle. Biochemical assay results are presented as the percent inhibition of specific binding in Table 4.

Test [2] addresses human recombinant dopamine D2L receptor (Homo sapiens, UniProt P14416). Kind of test: Dopamine D2L radioligand binding assay. The following applies: [3H]Spiperone specific binding; for inhibition at 1 µM: read-out: Percent Inhibition of ligand binding, Dopamine (1 μM ligand conc.) D2L. How it is done:
To evaluate in radioligand binding assays the activity of compounds of the invention, human recombinant dopamine D2L receptor expressed in Chinese hamster ovary (CHO) cells [Grandy, D. K. et al. Proc. Natl. Acad. Sci. USA. (1989), 86:9762; Hayes, G. et al., Mol. Endocrinol. (1992), 6:920] in a modified Tris-HCl buffer (50 mM Tris-HCl, pH 7.4, 1.4 mM Ascorbic Acid, 0.001% BSA, 150 mM NaCl) was used. Compounds of the invention were incubated with 0.16 nM [^3H]Spiperone for 120 min. at 25° C. Non-specific binding was estimated in the presence of 10 μM Haloperidol. Receptor proteins were filtered and washed, the filters were then counted to determine [^3H]Spiperone specifically bound. Compounds were screened at 1 μM or lower, using 1% DMSO as vehicle. Biochemical assay results are presented as the percent inhibition of specific binding in Table 3.

The target in test [3] is T2, human recombinant serotonin (5-Hydroxytryptamine) 5-HT2C receptor (Homo sapiens, UniProt P28335).
T2 construct: expressed in transfected cells; host or cells: Chinese hamster ovary (CHO-K1) cells
T2 sequence (P28335 33-458): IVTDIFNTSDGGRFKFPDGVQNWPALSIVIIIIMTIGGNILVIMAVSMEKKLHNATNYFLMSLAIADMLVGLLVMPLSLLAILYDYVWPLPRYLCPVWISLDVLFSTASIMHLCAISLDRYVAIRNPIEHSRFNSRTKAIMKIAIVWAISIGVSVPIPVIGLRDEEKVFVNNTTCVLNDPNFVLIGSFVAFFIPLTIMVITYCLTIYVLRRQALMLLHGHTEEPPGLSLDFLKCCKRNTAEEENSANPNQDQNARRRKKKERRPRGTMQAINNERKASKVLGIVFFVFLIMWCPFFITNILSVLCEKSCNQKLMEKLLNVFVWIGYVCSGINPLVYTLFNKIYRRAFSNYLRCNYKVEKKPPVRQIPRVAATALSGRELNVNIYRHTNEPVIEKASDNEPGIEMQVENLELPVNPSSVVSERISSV
Kind of test: Serotonin 5-HT2C radioligand binding assay. Conditions: [3H]Mesulergine specific binding; for inhibition at 1 µM: read-out: Percent Inhibition of ligand binding, Serotonin (1 μM ligand concentration) 5-HT2C. How it is done:
To evaluate in radioligand binding assays the activity of compounds of the invention, human recombinant serotonin (5-Hydroxytryptamine) 5-HT2C receptor expressed in Chinese hamster ovary (CHO-K1) cells [Wolf, W. A. et al., J. Neurochem. (1997), 69:1449] in a modified Tris-HCl buffer (50 mM Tris-HCl, pH 7.4, 0.1% Ascorbic Acid, 10 μM Pargyline) was used. Compounds of the invention were incubated with 1 nM [^3H]Mesulergine for 60 min. at 25° C. Non-specific binding was estimated in the presence of 1 μM Mianserin. Receptor proteins were filtered and washed, the filters were then counted to determine [^3H]Mesulergine specifically bound. Compounds were screened at 1 μM or lower, using 1% DMSO as vehicle. Biochemical assay results are presented as the percent inhibition of specific binding in Table 4.

Test [4] addresses T3, human recombinant adrenergic α2A receptor (Homo sapiens, UniProt P08913).
T3 construct: expressed in transfected cells; host or cells: insect Sf9 cells
T3 sequence (P08913 1-465): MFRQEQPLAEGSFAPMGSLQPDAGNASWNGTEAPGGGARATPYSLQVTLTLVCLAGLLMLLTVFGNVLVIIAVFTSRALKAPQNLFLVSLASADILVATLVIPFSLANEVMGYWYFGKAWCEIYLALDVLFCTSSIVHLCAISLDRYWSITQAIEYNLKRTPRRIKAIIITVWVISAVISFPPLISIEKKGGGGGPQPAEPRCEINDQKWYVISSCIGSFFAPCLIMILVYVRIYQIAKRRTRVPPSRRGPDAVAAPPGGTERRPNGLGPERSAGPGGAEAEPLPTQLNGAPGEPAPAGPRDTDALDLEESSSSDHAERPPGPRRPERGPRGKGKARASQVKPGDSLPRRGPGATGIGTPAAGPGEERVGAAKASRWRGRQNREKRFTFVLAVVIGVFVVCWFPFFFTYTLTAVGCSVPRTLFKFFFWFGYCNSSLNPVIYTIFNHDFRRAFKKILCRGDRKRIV
Kind of test: Adrenergic α2A radioligand binding assay. Conditions: [3H]MK-912 specific binding; for inhibition at 1 µM: read-out: Percent Inhibition of ligand binding, Adrenergic (1 μM ligand conc.) α2A; for inhibition at 0.1 µM: read-out: Percent Inhibition of ligand binding, Adrenergic (0.1 μM ligand conc.) α2A. How it is done: To evaluate in radioligand binding assays the activity of compounds of the invention, human recombinant adrenergic α2A receptor expressed in insect Sf9 cells [Uhlen, S et al. J. Pharmacol. Exp. Ther. (1994), 271:1558] in a modified Tris-HCl buffer (50 mM Tris-HCl, pH 7.4, 12.5 mM MgCl2, 2 mM EDTA) was used. Compounds of invention were incubated with 1 nM [^3H]MK-912 for 60 min. at 25° C. MK912 was (2S-trans)-1,3,4,5′,6,6′,7,12b-octahydro-1′,3′-dimethyl-spiro[2H-benzofuro[2,3-a]quinolizine-2,4′(1′H)-pyrimidin]-2′(3′H)-one hydrochloride Non-specific binding was estimated in the presence of 10 μM WB-4101 (2-(2,6-dimethoxyphenoxyethyl)aminomethyl-1,4-benzodioxane hydrochloride). Receptor proteins were filtered and washed, the filters were then counted to determine [^3H]MK-912 specifically bound. Compounds were screened at 1 μM or lower, using 1% DMSO as vehicle. Compounds of the invention were tested in this biochemical assay. Biochemical assay results for representative compounds were presented as the percent inhibition of specific binding in Table 3.

T1 sequence (P28223 whole entry): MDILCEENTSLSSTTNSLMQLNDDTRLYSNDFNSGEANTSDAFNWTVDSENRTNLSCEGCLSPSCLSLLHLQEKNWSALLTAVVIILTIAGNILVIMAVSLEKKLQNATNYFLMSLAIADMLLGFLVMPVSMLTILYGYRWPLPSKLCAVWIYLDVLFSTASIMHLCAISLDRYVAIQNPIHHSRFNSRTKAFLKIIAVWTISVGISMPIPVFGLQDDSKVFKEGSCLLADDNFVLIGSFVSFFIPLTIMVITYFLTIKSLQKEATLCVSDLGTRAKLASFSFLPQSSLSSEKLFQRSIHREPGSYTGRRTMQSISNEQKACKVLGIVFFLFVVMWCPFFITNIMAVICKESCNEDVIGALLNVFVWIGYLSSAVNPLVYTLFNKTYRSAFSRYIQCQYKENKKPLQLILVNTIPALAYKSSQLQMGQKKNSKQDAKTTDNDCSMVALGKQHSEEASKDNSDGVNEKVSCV
human recombinant dopamine D2L receptor, sequence (P14416 whole entry): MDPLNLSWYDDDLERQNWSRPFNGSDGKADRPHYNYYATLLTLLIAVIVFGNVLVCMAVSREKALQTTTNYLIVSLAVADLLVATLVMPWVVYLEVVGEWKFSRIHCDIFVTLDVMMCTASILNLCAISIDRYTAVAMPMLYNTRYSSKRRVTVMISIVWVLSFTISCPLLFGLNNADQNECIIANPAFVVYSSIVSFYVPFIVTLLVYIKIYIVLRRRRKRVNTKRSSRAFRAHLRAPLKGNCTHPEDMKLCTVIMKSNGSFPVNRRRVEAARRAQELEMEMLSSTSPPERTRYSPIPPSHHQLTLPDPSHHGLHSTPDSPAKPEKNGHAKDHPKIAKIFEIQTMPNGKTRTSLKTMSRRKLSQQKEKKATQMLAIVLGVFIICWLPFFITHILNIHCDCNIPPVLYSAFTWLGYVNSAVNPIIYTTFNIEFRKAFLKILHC

On to `C/C(=C\n1c2c(c3cc(C)ccc31)C1CCN(C2)C1)c1ccc(Cl)cc1Cl` (stereo not drawn) [Compound 34], for which, in test [1], the “Percent Inhibition of ligand binding, Serotonin (1 μM ligand concentration) 5-HT2A” value was determined as 94%. Besides, the “Percent Inhibition of ligand binding, Dopamine (1 μM ligand conc.) D2L” value in test [2] was 0%. The “Percent Inhibition of ligand binding, Serotonin (1 μM ligand concentration) 5-HT2C” value in test [3] was 99%. Moreover, the “Percent Inhibition of ligand binding, Adrenergic (1 μM ligand conc.) α2A” value in test [4] (1 μM) is given as 48%.

As for `Cc1ccc2c(c1)c1c(n2CC(C)(O)c2ccc(F)cc2F)CN2CCC1C2` (stereo not drawn) [Compound 17], the inhibition at 1 µM came out at 81% in test [1], 5% in test [2], 92% in test [3] and 4% in test [4] (1 μM).

Consider `Cc1ccc2c(c1)c1c(n2CC(=O)N(C)C)CN2CCC1C2` (stereo not drawn) [Compound 27], for which the inhibition at 1 µM is -4% in test [1], 11% in test [2], -1% in test [3] and 5% in test [4] (1 μM).

Consider `Cc1ccc2c(c1)c1c(n2CC(=O)N2CCNCC2)CN2CCC1C2` (stereo not drawn) [Compound 24], for which the inhibition at 1 µM in test [1] was 3%; in test [2], -8%; in test [3], 5%; in test [4] (1 μM) it was 4%.

Turning to `Cc1ccc2c(c1)c1c(n2C#Cc2ccc(Cl)cc2)CN2CCC1C2` (stereo not drawn) [Compound 35], the inhibition at 1 µM in test [1] is 87%; in test [2] it was -6%; in test [3], 94%.

Take `Cc1ccc2c(c1)c1c(n2CC(=O)N2CCOCC2)CN2CCC1C2` (stereo not drawn) [Compound 26]: the inhibition at 1 µM is 5% in test [1], 10% in test [2], 20% in test [3] and -4% in test [4] (1 μM).

For `Cc1ccc2c(c1)c1c(n2CC(=O)NC2CCCCC2)CN2CCC1C2` (stereo not drawn) [Compound 23], the inhibition at 1 µM in test [1] is -4%; in test [2], 5%; in test [3], 11%; in test [4] (1 μM) it was -13%.

For the compound `Cc1ccc(/C=C/n2c3c(c4cc(C)ccc42)C2CCN(C3)C2)cc1` (stereo not drawn) [Compound 10], the inhibition at 1 µM in test [1] was found to be 20%; in test [2], 18%; in test [3] it was 9%; in test [4] (1 μM), 38%.

Turning to `Cc1ccc2c(c1)c1c(n2C(=O)Cc2ccc(Cl)cc2)CN2CCC1C2` (stereo not drawn) [Compound 36], the inhibition at 1 µM in test [1] was 89%; in test [2], 3%; in test [3], 89%. Further, in test [4], the inhibition at 0.1 µM was 24%.

For the compound `C=C(Cn1c2c(c3cc(C)ccc31)C1CCN(C2)C1)c1ccc(F)cc1` (stereo not drawn) [Compound 3], the inhibition at 1 µM came to 94% in test [1], 12% in test [2], 97% in test [3] and 93% in test [4] (1 μM). Further, the “Percent Inhibition of ligand binding, Dopamine (1 μM ligand conc.) D2L” value in test [2] came to 21%.

For `Cc1ccc2c(c1)c1c(n2CCc2ccccn2)CN2CCC1C2` (stereo not drawn) [Compound 11], the inhibition at 1 µM in test [1] is 10%; in test [2], -6%; in test [3] it was 17%; in test [4] (1 μM) it was -15%.

Consider `C/C(=C\n1c2c(c3cc(C)ccc31)C1CCN(C2)C1)c1ccncc1` (stereo not drawn) [Compound 44], for which the inhibition at 1 µM in test [1] is 67%; in test [2] it was 9%; in test [3], 58%. Also, the inhibition at 0.1 µM in test [4] is -5%.

On to `COc1ccc(/C(C)=C/n2c3c(c4cc(C)ccc42)C2CCN(C3)C2)cc1` (stereo not drawn) [Compound 45], for which the values for the inhibition at 1 µM in test [1], in test [2] and in test [3] were 98%, -2% and 98%, respectively. Further, in test [4], the inhibition at 0.1 µM was 4%.

As for `Cc1ccc2c(c1)c1c(n2CC(C)(O)c2ccc(Cl)cc2Cl)CN2CCC1C2` (stereo not drawn) [Compound 14], the inhibition at 1 µM in test [1] was 61%; in test [2] it was 11%; in test [3], 87%; in test [4] (1 μM), 18%.

In the case of `Cc1ccc2c(c1)c1c(n2CC(C)(O)c2ccc(Cl)cc2)CN2CCC1C2` (stereo not drawn) [Compound 16], the inhibition at 1 µM in test [1] came out at 92%; in test [2], 5%; in test [3], 92%; in test [4] (1 μM) it was 28%.

With `C/C(=C\n1c2c(c3cc(C)ccc31)C1CCN(C2)C1)c1ccc(F)c(F)c1` (stereo not drawn) [Compound 39], the inhibition at 1 µM in test [1] stood at 94%; in test [2], 0%; in test [3], 94%.

For the compound `C/C(=C\n1c2c(c3cc(C)ccc31)C1CCN(C2)C1)c1cccnc1` (stereo not drawn) [Compound 42], the inhibition at 1 µM is 47% in test [1], -10% in test [2] and 64% in test [3].

As for `Cc1ccc2c(c1)c1c(n2C(=O)Cc2ccc(F)cc2)CN2CCC1C2` (stereo not drawn) [Compound 43], the inhibition at 1 µM in test [1] amounted to 48%; in test [2], 11%; in test [3] it was 66%.

With `COc1ccc(/C(C)=C/n2c3c(c4cc(C)ccc42)C2CCN(C3)C2)cc1F` (stereo not drawn) [Compound 41], the inhibition at 1 µM in test [1] was 92%; in test [2], 17%; in test [3] it was 97%.

On to `C/C(=C/n1c2c(c3cc(C)ccc31)C1CCN(C2)C1)c1ccccc1F` (stereo not drawn) [Compound 37], for which the inhibition at 1 µM in test [1] came to 96%; in test [2], 5%; in test [3], 94%.

Take `C/C(=C\n1c2c(c3cc(C)ccc31)C1CCN(C2)C1)c1ccc(Cl)c(Cl)c1` (stereo not drawn) [Compound 40]: the inhibition at 1 µM was 94% in test [1], 6% in test [2] and 89% in test [3].
